Laboratory results as given in patent US12251373B2, “Compounds and methods of treating retinal degeneration” (CASE WESTERN RESERVE UNIVERSITY, priority 2017, dated 2025).

Legend:
[1] = tested on: C57BL/6 mice; experiment: Bw measurements, long-term toxicity by daily i.p. injections; assay type: in vivo; settings: 100 or 200 mg kg−1 bw daily i.p. Day 14 to 38, vs DMSO
Method: To estimate the long-term toxicity of YC-001 in mice, we administered YC-001 to C57BL/6 mice by daily i.p. injections from Day 14 to 38 after birth with one of two doses, either 100 mg kg^−1 or 200 mg kg^−1 bw. Equivalent volumes of DMSO were injected into control groups. Bws of treated mice were measured daily. Each dosage group contained 3 mice including males and females.

[2] = biological target: T1, ovine COX-1 (Ovis aries, UniProt P05979); experiment: COX-1 activity assay; assay type: biochemical; settings: up to 80 μM of YC-001
T1 construct: purchased Abcam
T1 sequence (P05979 25-600): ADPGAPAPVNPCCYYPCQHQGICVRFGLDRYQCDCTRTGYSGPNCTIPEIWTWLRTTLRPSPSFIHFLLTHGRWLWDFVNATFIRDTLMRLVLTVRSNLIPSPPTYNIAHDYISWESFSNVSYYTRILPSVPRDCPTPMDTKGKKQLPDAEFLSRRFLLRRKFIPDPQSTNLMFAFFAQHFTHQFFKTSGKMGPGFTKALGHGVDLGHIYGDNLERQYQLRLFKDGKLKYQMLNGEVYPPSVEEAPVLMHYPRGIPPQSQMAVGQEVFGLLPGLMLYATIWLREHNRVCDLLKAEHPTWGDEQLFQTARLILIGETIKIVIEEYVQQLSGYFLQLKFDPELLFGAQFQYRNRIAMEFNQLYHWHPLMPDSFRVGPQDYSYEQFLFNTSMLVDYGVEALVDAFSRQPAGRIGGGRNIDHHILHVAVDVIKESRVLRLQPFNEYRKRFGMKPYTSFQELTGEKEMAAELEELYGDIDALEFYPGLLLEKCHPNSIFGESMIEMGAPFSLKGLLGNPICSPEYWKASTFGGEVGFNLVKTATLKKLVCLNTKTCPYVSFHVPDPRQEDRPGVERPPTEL
Method: The effect of the compound YC-001 on cyclooxygenase 1 (COX-1) activity was evaluated using the COX1 Inhibitor Screening Kit (Abcam, Cambridge, MA, USA) according to the manufacture's protocol. Briefly, the assay is based on the fluorometric detection of Prostaglandin G2, the intermediate product generated by the COX-1 enzyme. COX reaction mix included ovine COX-1, COX probe and COX cofactor and was prepared in a 96-well plate. YC-001 working solutions were dissolved in DMSO, and then mixed with COX Reaction Mix to the final concentrations (80, 40, 20, 10, 5, 2.5, 1.25, 0.625, 0.312, 0.156, 0.078 and 0.039 μM). Equivalent volume of DMSO was used as vehicle control and SC560 was used as a positive control. All controls and samples were measured in triplicate. Then Arachidonic Acid was added into each well to initiate all the reactions at the same time. The fluorescence was measured at Ex/Em=535/587 nm in a kinetic mode for 15 min at 25° C. Five time points were chosen in the linear range of the plot and the corresponding values for the fluorescence were used to calculate the slope of the linear regression equation. Relative COX-1 activity was calculated as Equation 5: […]

[3] = Metabolic stability in mouse liver microsomes; assay type: in vitro ADME; settings: 5 μM, with NADPH, vs verapamil
Method: A standard metabolic stability assay was performed in the presence of mouse or human liver microsomes. YC-001 (5 μM) was incubated with the microsomes (0.125 mg mL^−1) resuspended in 0.2 mL of PBS buffer, pH 7.4 composed of 10 mM Na2HPO4, 1.8 mM KH2PO4, 137 mM NaCl, and 2.7 mM KCl. The enzymatic reaction to produce oxidized metabolites was initiated by addition of NADPH (1 mM). Samples were incubated at 37° C. for up to 240 min. Incubation without the cofactor was conducted in parallel to assess NADPH-independent clearance. The reactions were stopped with 0.2 mL of methanol followed by 0.3 mL chloroform. Residual YC-001 was extracted by vigorous shaking. To facilitate phase separation, the samples were spun down for 2 min, 15,000×g. The chloroform fraction was collected, dried down, and the extracted organic compounds were redissolved in 0.2 mL of methanol. To quantify YC-001, the samples were injected onto an Eclipse XDB-C18 column (4.6×150 mm, 5 μm) (Agilent Technologies) equilibrated with solvent composed of 30% acetonitrile in water (v/v), and 0.1% formic acid. YC-001 was eluted in a gradient of acetonitrile in water (30-100%) developed within 15 min at a flow rate of 1 mL min^−1, detected at 350 nm, and quantified by correlating peak areas with known quantities of an original synthetic standard. […]

Question: Which “behavioral or bw growth changes” value [1] does the source give for `O=C1OCC(c2ccc(Cl)s2)=C1c1cccs1` [YC-001] here?
Answer: The value was “no obvious behavioral or bw growth changes”.

Question: And the COX-1 enzymatic activity [2]?
Answer: Its COX-1 enzymatic activity is “didn't see changes”.

Question: What about the “initial clearance in liver microsomes” value [3] of the same molecule?
Answer: The value was “even higher initial clearance”.
